The text below walks through data of paper PMC10057480, “Expanding the Library of 1,2,4-Oxadiazole Derivatives: Discovery of New Farnesoid X Receptor (FXR) Antagonists/Pregnane X Receptor (PXR) Agonists” (Molecules, 2023).

Data set [1] deals with T1, FXR (Homo sapiens, UniProt Q96RI1).
T1 construct: expressed in transfected cells; host or cells: HepG2
T1 sequence (Q96RI1 1-486): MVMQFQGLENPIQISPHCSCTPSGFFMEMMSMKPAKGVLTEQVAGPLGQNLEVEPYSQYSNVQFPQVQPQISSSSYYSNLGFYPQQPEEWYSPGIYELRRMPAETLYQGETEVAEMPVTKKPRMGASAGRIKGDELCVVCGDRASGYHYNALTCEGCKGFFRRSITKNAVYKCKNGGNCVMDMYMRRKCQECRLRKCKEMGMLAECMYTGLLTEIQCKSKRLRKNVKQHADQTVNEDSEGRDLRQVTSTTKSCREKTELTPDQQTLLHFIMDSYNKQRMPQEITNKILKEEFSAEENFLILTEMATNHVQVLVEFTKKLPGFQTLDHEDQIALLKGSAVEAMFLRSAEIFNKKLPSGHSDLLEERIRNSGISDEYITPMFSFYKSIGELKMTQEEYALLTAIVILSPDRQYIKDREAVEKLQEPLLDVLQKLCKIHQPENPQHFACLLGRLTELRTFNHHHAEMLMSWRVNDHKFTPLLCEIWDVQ
Briefly: FXR luciferase reporter transactivation assay (antagonism) on HepG2 cells. The settings on record: at least three experiments; for FXR Antagonism Eff (%): HepG2 transactivation, compounds at 50 μM, percent inhibition of transactivation set at 100%, mean ± SD; for IC50: transactivation assay, concentration-response, mean ± SEM. The format is cell-based. As for the experimental part: The antagonistic activity on FXR was investigated using HepG2 cells transfected with 100 ng of pSG5-FXR and pSG5-RXR, 200 ng of the reporter vector p(hsp27)-TK-LUC containing the FXR response element, and 100 ng of the pGL4.70 vector encoding the human Renilla gene used as a transfection control. […] In another experimental setting, HepG2 cells were transfected using 100 ng of pSG5-PXR, 100 ng of pSG5-RXR, and 100 ng of pGL4.70, along with the reporter vector pGL3(henance)PXRE. At 24 h post-transfection, cells were stimulated with rifaximin 10 μM (as a positive control) or compounds 2–11 (10 μM). The specificity of compounds 5 and 11 versus FXR and PXR was tested using HepG2 cells transiently transfected with 200 ng of the reporter vector p(UAS)5XTKLuc, 100 ng of a vector containing the ligand binding domain of LXRα or LXRβand 100 ng of pGL4.70, a vector encoding the human Renilla gene. At 24 h post-transfection, cells were stimulated for 18 h with GW3965 (5 μM), compounds 5 and 11 (10 μM), and the combination of GW3965 plus 5 or 11 (50 μM). Cellular lysate was assayed for luciferase and Renilla activities after 18 h using the Dual-Luciferase Reporter assay system (E1980, Promega, Madison, WI, USA). The activity of luciferase was measured using the Glomax 20/20 luminometer (Promega, Madison, WI, USA) and normalized with Renilla activities.
On the technique in general: Reporter assays use an easily measured gene product as a stand-in for the process of interest.

Data set [2] is described as follows: LogD measurement (1-octanol/PBS pH 7.4, LC-MS/MS). The format is physicochemical. As for the experimental part: 40 μL of a 10 mM solution in DMSO of each compound was added to a 2 mL test tube containing 980 μL of PBS pH 7.4 and 980 μL of 1-Octanol (in duplicate). The tubes were shaken for 2 h at room temperature and subsequently kept still to allow for an optimal phase separation. The two phases were then separated, and 10 μL of each sample was diluted in 490 μL of MeOH for LC-MS/MS analysis. LogD was calculated as Log10 of the ratio of mass signal octanol/PBS. LC-MS/MS analysis was conducted using a Kinetex 2.6 µm C18 100 Å LC column 100 × 2.1 mm by means of a linear gradient of the aqueous phase (H2O 0.1% FA) and organic phase (ACN 0.1% FA).

The subject of data set [3] is Human-CaCo2 cells stimulated with TNFα. Description: qPCR of PXR and inflammatory cytokines in TNFα-stimulated CaCo2 cells. It is filed as cell-based. The conditions noted are these: TNFα 100 ng/mL plus compound 10 μM. As for the experimental part: HepG2 and CaCo2 cell lines, obtained from ATCC, were routinely cultured in Eagle’s MEM and high-glucose DMEM, respectively, supplemented with 10% FBS, 1% glutamine, and penicillin/streptomycin. For in vitro experiments, HepG2 (2 × 106) cells were stimulated with 6-ECDCA at a concentration of 10 µM alone or in combination with compound 5 or 11, and CaCo2 cells were exposed to TNFα (100 ng/mL) alone or in combination with rifaximin, compound 5, or 11.
Total RNA was isolated from the HepG2 and CaCo2 cell lines using TRI reagent (Zymo Research) and Direct-zol™ RNA MicroPrep w/Zymo-Spin™ IIC Columns (Zymo Research, Irvine, CA, USA). After purification from genomic DNA using DNase I (Thermo Fisher Scientific, Waltham, MA, USA), 2 μg of RNA from each sample was reverse transcribed using Kit FastGene Scriptase Basic (Nippon Genetics, Mariaweilerstraße, Düren, Germany) in 20-μL of reaction volume, and 50 ng of cDNA was amplified in a 20-μL solution containing 200 nM of each primer and 10 μL of PowerUp™ SYBR™ Green Master Mix (Thermo Fisher Scientific, Waltham, MA, USA) using a Quantstudio 3 system (Applied Biosystems, Foster City, CA, USA). The relative mRNA expression was calculated according to the ΔCt method. The primer used were as follows (forward and reverse): hGapdh (for […]; rev […]), hBsep (for […]; rev […]), hOstα (for […]; rev […]), hNtcp (for […]; rev […]), hPxr (for GCAAGGGCTTTTTCAGGAG; rev GGGTCTTCCGGGTGATCT), hIl-8 (for […]; rev […]), hIl-1β (for […]; rev […]).
For orientation: Real-time PCR tracks product formation cycle by cycle.

Each structure is given as a SMILES string. Values joined by “and” are separate entries in the source; they are usually repeats but may differ in a detail not shown here. Equal entries are not always repeated.

For `CCCCCN1CCC(c2nc(-c3ccc4ccccc4c3)no2)CC1` [Compound 5, 3-(Naphthalen-2-yl)-5-(1-pentylpiperidin-4-yl)-1,2,4-oxadiazole], in data set [1], the “FXR Antagonism Eff (%)” value is 66% and 66 ± 1%; the IC50 turned out to be 8.4 ± 2 µM. Besides, the logD at 2 h in data set [2] came to 4.4. In data set [3], the “Effect on proinflammatory factors caused by TNFα stimulation” value is on record as “reduced changes in the production of proinflammatory factors”.
`OCc1ccc(CN2CCC(c3nc(-c4ccc5ccccc5c4)no3)CC2)cc1` [Compound 11, 5-[1-(4-(Hydroxymethyl)benzyl)piperidin-4-yl]-3-(naphthalen-2-yl)-1,2,4-oxadiazole]: in data set [1], the “FXR Antagonism Eff (%)” value was 72% and 72 ± 6%; the IC50 was found to be 4.4 ± 0.4 µM. Further, the logD at 2 h in data set [2] is 3.9. Further, in data set [3], the “Effect on proinflammatory factors caused by TNFα stimulation” value is given as “reduced changes in the production of proinflammatory factors”.

As usually defined, the IC50 is the midpoint of a concentration-inhibition curve. One may read the logD as lipophilicity at a set pH, counting ionised and neutral species. The low end stands for a more hydrophilic compound, the high end for a more lipophilic compound.
